Experimental findings from patent US20140005163A1 (NOVARTIS AG, priority 2010, published 2014) are described below.

pIC50: −log10 of the molar value.

By pIC50 is commonly meant the negative decadic logarithm of the IC50, by convention in mol/L.

For this assay, the system named is PKB Ser473 phosphorylation in Rat1-myr-HA-p110 beta cells. As to the kind of experiment: Reverse protein array assay, PKB Ser473 phosphorylation in Rat1-myr-p110 beta cells. The class given is cell-based. Particulars: 0.5 h, pAkt Ser473, 30 minutes incubation, read-out: p-PKB IC50. Summed up: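 After at least 20 h of culture, the p110 isoform-transfected Rat1 lines receive compound in an 8-step dilution series, keeping DMSO at 0.2%, for 30 minutes. Cells are then lysed and lysates arrayed on chips for fluorescence detection of Ser473-phosphorylated PKB.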

As to `Cc1nn(C)cc1-n1c(=O)n(C)c2cnc3ccc(-c4cncc(C5(C#N)CCC5)c4)cc3c21` [Example 221.1, 1-{5-[1-(1,3-Dimethyl-1H-pyrazol-4-yl)-3-methyl-2-oxo-2,3-dihydro-1H-imidazo[4,5-c]quinolin-8-yl]-pyridin-3-yl}-cyclobutanecarbonitrile], the pIC50 was 7.70.
As to `Cc1nn(C(C)C)cc1-n1c(=O)n(C)c2cnc3ccc(-c4cncc(N)c4)cc3c21` [Example 45.3, 8-(5-Amino-pyridin-3-yl)-1-(1-isopropyl-3-methyl-1H-pyrazol-4-yl)-3-methyl-1,3-dihydro-imidazo[4,5-c]quinolin-2-one], the negative logarithm of the IC50 (pIC50) is 7.44.
For `CCc1ncc(-c2ccc3ncc4c(c3c2)n(-c2cn(C)nc2C)c(=O)n4C)cc1O` [Example 188, 1-(1,3-Dimethyl-1H-pyrazol-4-yl)-8-(6-ethyl-5-hydroxy-pyridin-3-yl)-3-methyl-1,3-dihydro-imidazo[4,5-c]quinolin-2-one], the pIC50 was 7.66.
The value for `CNc1cc(-c2ccc3ncc4c(c3c2)n(-c2cn(C)nc2Cl)c(=O)n4C)cnc1CO` [Example 158.3, 1-(3-Chloro-1-methyl-1H-pyrazol-4-yl)-8-(6-hydroxymethyl-5-methylamino-pyridin-3-yl)-3-methyl-1,3-dihydro-imidazo[4,5-c]quinolin-2-one] was greater than 8.30.
Take `COc1ncc(-c2ccc3ncc4c(c3c2)n(-c2cn(C)nc2Cl)c(=O)n4C)cc1N` [Example 89, 8-(5-Amino-6-methoxy-pyridin-3-yl)-1-(3-chloro-1-methyl-1H-pyrazol-4-yl)-3-methyl-1,3-dihydro-imidazo[4,5-c]quinolin-2-one]: the pIC50 was greater than 8.30.
On to `CCc1ncc(-c2ccc3ncc4c(c3c2)n(-c2cn(C)nc2C)c(=O)n4C)cc1N` [Example 208, 8-(5-Amino-6-ethyl-pyridin-3-yl)-1-(1,3-dimethyl-1H-pyrazol-4-yl)-3-methyl-1,3-dihydro-imidazo[4,5-c]quinolin-2-one], for which the pIC50 is 7.77.
Take `CNc1cc(-c2ccc3ncc4c(c3c2)n(-c2cn(C(C)C)nc2C)c(=O)n4C)cnc1CO` [Example 158.2, 8-(6-Hydroxymethyl-5-methylamino-pyridin-3-yl)-1-(1-isopropyl-3-methyl-1H-pyrazol-4-yl)-3-methyl-1,3-dihydro-imidazo[4,5-c]quinolin-2-one]: the pIC50 is 8.22.
The value for `Cc1nn(C(C)C)cc1-n1c(=O)n(C)c2cnc3ccc(-c4cnc(N)c(F)c4)cc3c21` [Example 142.3, 8-(6-Amino-5-fluoro-pyridin-3-yl)-1-(1-isopropyl-3-methyl-1H-pyrazol-4-yl)-3-methyl-1,3-dihydro-imidazo[4,5-c]quinolin-2-one] was 7.72.
The value for `CCOc1ncc(-c2ccc3ncc4c(c3c2)n(-c2cn(C)nc2C)c(=O)n4C)cc1NC(C)=O` [Example 65, N-{5-[1-(1,3-Dimethyl-1H-pyrazol-4-yl)-3-methyl-2-oxo-2,3-dihydro-1H-imidazo[4,5-c]quinolin-8-yl]-2-ethoxy-pyridin-3-yl}-acetamide] was 7.37; that for `Cc1cnn(C)c1-n1c(=O)n(C)c2cnc3ccc(-c4cncc(OC(C)C)c4)cc3c21` [Example 58.3, 1-(2,4-Dimethyl-2H-pyrazol-3-yl)-8-(5-isopropoxy-pyridin-3-yl)-3-methyl-1,3-dihydro-imidazo[4,5-c]quinolin-2-one] was 6.55; that for `CNc1ncc(-c2ccc3ncc4c(c3c2)n(-c2cn(C(C)C)nc2C)c(=O)n4C)cc1F` [Example 141.3, 8-(5-Fluoro-6-methylamino-pyridin-3-yl)-1-(1-isopropyl-3-methyl-1H-pyrazol-4-yl)-3-methyl-1,3-dihydro-imidazo[4,5-c]quinolin-2-one] was 7.89.
The value for `Cn1cc(-n2c(=O)n(C)c3cnc4ccc(-c5cncc(C(C)(C)C#N)c5)cc4c32)c(Cl)n1` [Example 220.3, 2-{5-[1-(3-Chloro-1-methyl-1H-pyrazol-4-yl)-3-methyl-2-oxo-2,3-dihydro-1H-imidazo[4,5-c]quinolin-8-yl]-pyridin-3-yl}-2-methyl-propionitrile] was 8.22; that for `Cc1nn(C)cc1-n1c(=O)n(C)c2cnc3ccc(-c4cnc5ccn(C)c5c4)cc3c21` [Example 129, 1-(1,3-Dimethyl-1H-pyrazol-4-yl)-3-methyl-8-(1-methyl-1H-pyrrolo[3,2-b]pyridin-6-yl)-1,3-dihydro-imidazo[4,5-c]quinolin-2-one] was 7.80.
Consider `Cc1nn(C)cc1-n1c(=O)n(C)c2cnc3ccc(-c4ccc(N5CCNCC5)nc4)cc3c21` [Example 126, 1-(1,3-Dimethyl-1H-pyrazol-4-yl)-3-methyl-8-(6-piperazin-1-yl-pyridin-3-yl)-1,3-dihydro-imidazo[4,5-c]quinolin-2-one], for which the pIC50 was 6.58.
The value for `CCn1cc(-n2c(=O)n(C)c3cnc4ccc(-c5cnc(COC)c(OC(C)C)c5)cc4c32)c(C)n1` [Example 191.2, 1-(1-Ethyl-3-methyl-1H-pyrazol-4-yl)-8-(5-isopropoxy-6-methoxymethyl-pyridin-3-yl)-3-methyl-1,3-dihydro-imidazo[4,5-c]quinolin-2-one] was 7.24; that for `CO[C@@H]1CCN(c2ccc(-c3ccc4ncc5c(c4c3)n(-c3cn(C)nc3C)c(=O)n5C)cn2)C1` [Example 213.1, 1-(1,3-Dimethyl-1H-pyrazol-4-yl)-8-[6-((R)-3-methoxy-pyrrolidin-1-yl)-pyridin-3-yl]-3-methyl-1,3-dihydro-imidazo[4,5-c]quinolin-2-one] was 6.47.
The value for `CCOc1cc(-c2ccc3ncc4c(c3c2)n(-c2cn(C(C)C)nc2C)c(=O)n4C)cnc1COC` [Example 197.2, 8-(5-Ethoxy-6-methoxymethyl-pyridin-3-yl)-1-(1-isopropyl-3-methyl-1H-pyrazol-4-yl)-3-methyl-1,3-dihydro-imidazo[4,5-c]quinolin-2-one] was 7.11.
The value for `CCN1C(=O)OCc2ncc(-c3ccc4ncc5c(c4c3)n(-c3cn(C)nc3C)c(=O)n5C)cc21` [Example 237, 1-(1,3-Dimethyl-1H-pyrazol-4-yl)-8-(1-ethyl-2-oxo-1,4-dihydro-2H-pyrido[3,2-d][1,3]oxazin-7-yl)-3-methyl-1,3-dihydro-imidazo[4,5-c]quinolin-2-one] was 7.26; that for `Cc1nn(C)cc1-n1c(=O)n(C)c2cnc3ccc(-c4cncc(N(C)C)c4)cc3c21` [Example 178, 8-(5-Dimethylamino-pyridin-3-yl)-1-(1,3-dimethyl-1H-pyrazol-4-yl)-3-methyl-1,3-dihydro-imidazo[4,5-c]quinolin-2-one] was 7.31; that for `CCn1c(=O)n(-c2cn(C)nc2C)c2c3cc(-c4cncc(N)c4)ccc3ncc21` [Example 245, 8-(5-Amino-pyridin-3-yl)-1-(1,3-dimethyl-1H-pyrazol-4-yl)-3-ethyl-1,3-dihydro-imidazo[4,5-c]quinolin-2-one] was 6.41.
In the case of `Cc1nn(C)c(C)c1-n1c(=O)n(C)c2cnc3ccc(-c4cnc(N)c(CO)c4)cc3c21` [Example 169.2, 8-(6-Amino-5-hydroxymethyl-pyridin-3-yl)-3-methyl-1-(1,3,5-trimethyl-1H-pyrazol-4-yl)-1,3-dihydro-imidazo[4,5-c]quinolin-2-one], the pIC50 is 6.23.
The value for `Cn1cc(-n2c(=O)n(C)c3cnc4ccc(-c5ccc(CO)nc5)cc4c32)c(Cl)n1` [Example 16.5, 1-(3-chloro-1-methyl-1H-pyrazol-4-yl)-8-(6-hydroxymethyl-pyridin-3-yl)-3-methyl-1,3-dihydro-imidazo[4,5-c]quinolin-2-one] was 8.00; that for `CNc1cc(-c2ccc3ncc4c(c3c2)n(-c2cn(C)nc2C)c(=O)n4C)cnc1C` [Example 163, 1-(1,3-Dimethyl-1H-pyrazol-4-yl)-3-methyl-8-(6-methyl-5-methylamino-pyridin-3-yl)-1,3-dihydro-imidazo[4,5-c]quinolin-2-one] was greater than 8.30; that for `COCCOc1cncc(-c2ccc3ncc4c(c3c2)n(-c2cn(C)nc2Cl)c(=O)n4C)c1` [Example 59.2, 1-(3-Chloro-1-methyl-1H-pyrazol-4-yl)-8-[5-(2-methoxy-ethoxy)-pyridin-3-yl]-3-methyl-1,3-dihydro-imidazo[4,5-c]quinolin-2-one] was 7.21.
The value for `CCNc1ncc(-c2ccc3ncc4c(c3c2)n(-c2c(C)nn(C)c2C)c(=O)n4C)cc1COC` [Example 206.2, 8-(6-Ethylamino-5-methoxymethyl-pyridin-3-yl)-3-methyl-1-(1,3,5-trimethyl-1H-pyrazol-4-yl)-1,3-dihydro-imidazo[4,5-c]quinolin-2-one] was 6.02; that for `Cc1nn(CC(=O)N2CCC2)cc1-n1c(=O)n(C)c2cnc3ccc(-c4cnc(N5CCCC5)nc4)cc3c21` [Example 247.2, 1-[1-(2-Azetidin-1-yl-2-oxo-ethyl)-3-methyl-1H-pyrazol-4-yl]-3-methyl-8-(2-pyrrolidin-1-yl-pyrimidin-5-yl)-1,3-dihydro-imidazo[4,5-c]quinolin-2-one] was 7.06.
The value for `CCNc1ncc(-c2ccc3ncc4c(c3c2)n(-c2cn(C)nc2C)c(=O)n4C)cc1COC` [Example 206.1, 1-(1,3-Dimethyl-1H-pyrazol-4-yl)-8-(6-ethylamino-5-methoxymethyl-pyridin-3-yl)-3-methyl-1,3-dihydro-imidazo[4,5-c]quinolin-2-one] was 6.65; that for `CCNc1cc(-c2ccc3ncc4c(c3c2)n(-c2cn(C)nc2C)c(=O)n4C)cnc1CO` [Example 155.1, 1-(1,3-Dimethyl-1H-pyrazol-4-yl)-8-(5-ethylamino-6-hydroxymethyl-pyridin-3-yl)-3-methyl-1,3-dihydro-imidazo[4,5-c]quinolin-2-one] was 7.66.
With `CCN(C)c1cc(-c2ccc3ncc4c(c3c2)n(-c2cn(C)nc2C)c(=O)n4C)cnc1C` [Example 165, 1-(1,3-Dimethyl-1H-pyrazol-4-yl)-8-[5-(ethyl-methyl-amino)-6-methyl-pyridin-3-yl]-3-methyl-1,3-dihydro-imidazo[4,5-c]quinolin-2-one], the pIC50 was 7.96.
